# Assay results taken from patent US20050165057A1, “Novel piperidine derivative” (priority 2002, published 2005).
# Assays:
# ACAT [1] = biological target: T1, ACAT (Rattus norvegicus, UniProt O70536); test: Assay of ACAT inhibitory activity in a macrophage derived from rat peritoneal cavity; type: cell-based; conditions: concentration of compound: 500 nM
# T1 construct: The rat peritoneal-derived macrophage was prepared according to the method disclosed in the literature; endogenous in cells; host or cells: rat peritoneal macrophages (primary cells)
# T1 sequence (O70536 1-545): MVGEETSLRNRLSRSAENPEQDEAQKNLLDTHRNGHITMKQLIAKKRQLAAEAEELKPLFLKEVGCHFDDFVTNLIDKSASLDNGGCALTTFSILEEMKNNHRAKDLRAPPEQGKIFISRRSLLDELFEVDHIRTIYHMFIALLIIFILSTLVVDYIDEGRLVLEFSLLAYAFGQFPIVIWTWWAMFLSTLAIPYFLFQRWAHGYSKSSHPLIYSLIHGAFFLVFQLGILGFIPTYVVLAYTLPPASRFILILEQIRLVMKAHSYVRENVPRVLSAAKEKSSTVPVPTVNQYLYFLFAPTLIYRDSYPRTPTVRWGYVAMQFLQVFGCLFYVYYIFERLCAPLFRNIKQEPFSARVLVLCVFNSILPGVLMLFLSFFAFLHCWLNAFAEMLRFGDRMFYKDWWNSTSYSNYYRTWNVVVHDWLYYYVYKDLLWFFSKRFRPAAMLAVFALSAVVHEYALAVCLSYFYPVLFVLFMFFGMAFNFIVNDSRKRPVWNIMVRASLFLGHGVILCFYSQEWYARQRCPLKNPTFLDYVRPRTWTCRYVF
# Description: 2. Assay of ACAT Inhibitory Activity in a Macrophage Derived from Rat Peritoneal Cavity:
# The rat peritoneal-derived macrophage was prepared according to the method disclosed in the literature: Biochimica et Biophysica Acta, 1126, 73-80, 1992. The ACAT activity was determined by a modified method of the method disclosed in the above literature: Biochimica et Biophysica Acta, 1126, 73-80, 1992, using radioactive [9, 10-^3H]oleic acid and exogenous cholesterol contained in the liposome which was re-constituted according to the method disclosed in the literature: Biochimica et Biophysica Acta, 1213, 127-134, 1994, and calculated from the radioactivity of the labeled cholesterolyl oleate.
# ACAT [2] = test: Assay of ACAT inhibitory activity using Caco-2 cells; type: cell-based, human; conditions: concentration of compound: 500 nM
# Description: 1. Assay of ACAT Inhibitory Activity Using Caco-2 Cells Derived from Human Colon Adenocarcinoma:
# The measurement of ACAT inhibitory activity using Caco-2 cells was carried out by a modified method of that disclosed in the literature (J. Lipid. Research, 28, 1057-1066, 1987, Jpn. J. Pharmacol., 68, 191-199, 1995), using radioactive [1-^3H]oleic acid as a substrate, and the enzymatic activity was calculated from the radioactivity of the resultant labeled cholesterolyl oleate.
SMILES,ACAT inhibitory rate (%) (ACAT [1]),ACAT inhibitory rate (%) (ACAT [2])
"CC(C)c1cc(N)cc(C(C)C)c1NC(=O)NCC1(c2cccc(OCCCNC(=O)CC(F)(F)F)c2)CCN(c2ccccc2)CC1 [Example 11-1, N-{(1-phenyl-4-{3-[3-(2,2,2-trifluoroethyl)carbonylaminopropoxy]phenyl}piperidin-4-yl)methyl}-N′-(4-amino-2,6-diisopropylphenyl)urea]",99,57
"COc1cccc(C2(CNC(=O)Nc3c(C(C)C)cc(N)cc3C(C)C)CCN(c3cccc(C)c3)CC2)c1 [Example 12-2, N-{[1-(3-methylphenyl)-4-(3-methoxyphenyl)piperidin-4-yl]methyl}-N′-(4-amino-2,6-diisopropylphenyl)urea]",99,59
"COc1cccc(C2(CNC(=O)Nc3c(C(C)C)cc(N)cc3C(C)C)CCN(c3cccc(F)c3)CC2)c1 [Example 12-3, N-{[1-(3-fluorophenyl)-4-(3-methoxyphenyl)piperidin-4-yl]methyl}-N′-(4-amino-2,6-diisopropylphenyl)urea]",99,63
